Data as given in patent publication US20260256923A1, “NEW RECRUITMENT ELEMENT OF UBIQUITIN LIGASE AND USE THEREOF” (SHENZHEN LINGGENE BIOTECH CO., LTD., priority 2023, published 2026).

Experiments:
[1] = target: T1, STAT3 (Homo sapiens, UniProt P40763); assay: STAT3 protein degradation in HOS osteosarcoma cells, western blot; format: cell-based; design: endogenous in cells; conditions: 500 nM, 6 h
Description: HOS osteosarcoma cells were incubated with 500 nM double-stranded transcription factor decoy oligonucleotide S3, AS1411, the first PROTAC product 1411-S3-1, the second PROTAC product 1411-S3-2, or AS1411+double-stranded transcription factor decoy oligonucleotide S3. After 6 h, cell samples were collected for protein extraction and subsequent western blot assay.

[2] = target: T1, STAT3; assay: STAT3 protein degradation in HeLa cells, western blot; format: cell-based; design: endogenous in cells; host or cells: HeLa; conditions: 500 nM, 6 h
Description: HeLa cells were incubated with 500 nM said first PROTAC product 1411-S3-1 or second PROTAC product 1411-S3-2, and corresponding cell samples were collected at time gradients of 0 h, 2 h, 6 h, 12 h, 18 h, and 24 h for protein extraction and subsequent western blot assay.
HeLa cells were incubated with the first PROTAC product 1411-S3-1 or the second PROTAC product 1411-S3-2 at concentrations of 0 nM, 100 nM, 200 nM, 500 nM, and 1000 nM. After 6 h, cell samples were collected for protein extraction and subsequent western blot assay. […] The half-maximal degradation concentrations (DC50) of the first PROTAC product 1411-S3-1 and the second PROTAC product 1411-S3-2 against STAT3 at the protein level were 262.5 nM and 136.3 nM, respectively, as shown in FIG. 19.
HeLa cells were incubated with 500 nM double-stranded transcription factor decoy oligonucleotide S3, AS1411, the first PROTAC product 1411-S3-1, the second PROTAC product 1411-S3-2, or AS1411+double-stranded transcription factor decoy oligonucleotide S3. After 6 h, cell samples were collected for protein extraction and subsequent western blot assay.
HeLa cells were incubated with 500 nM said first PROTAC product 1411-S3-1 or second PROTAC product 1411-S3-2, and proteasome inhibitor MG132 was added. After 6 h, cell samples were collected for protein extraction and subsequent western blot assay. […]

[3] = target: MDM2 (Homo sapiens, UniProt Q00987); assay: Biotin-oligonucleotide pull-down with recombinant proteins (MDM2); format: binding; design: purchased R&D Systems (MDM2); ACROBiosystems (NCL) E3-202-050 (MDM2); NUL-H5253 (NCL); conditions: 400 nM 5′-biotin label, 6 μg/mL NCL + 6 μg/mL MDM2
Sequence of MDM2 (P19338 whole entry partner): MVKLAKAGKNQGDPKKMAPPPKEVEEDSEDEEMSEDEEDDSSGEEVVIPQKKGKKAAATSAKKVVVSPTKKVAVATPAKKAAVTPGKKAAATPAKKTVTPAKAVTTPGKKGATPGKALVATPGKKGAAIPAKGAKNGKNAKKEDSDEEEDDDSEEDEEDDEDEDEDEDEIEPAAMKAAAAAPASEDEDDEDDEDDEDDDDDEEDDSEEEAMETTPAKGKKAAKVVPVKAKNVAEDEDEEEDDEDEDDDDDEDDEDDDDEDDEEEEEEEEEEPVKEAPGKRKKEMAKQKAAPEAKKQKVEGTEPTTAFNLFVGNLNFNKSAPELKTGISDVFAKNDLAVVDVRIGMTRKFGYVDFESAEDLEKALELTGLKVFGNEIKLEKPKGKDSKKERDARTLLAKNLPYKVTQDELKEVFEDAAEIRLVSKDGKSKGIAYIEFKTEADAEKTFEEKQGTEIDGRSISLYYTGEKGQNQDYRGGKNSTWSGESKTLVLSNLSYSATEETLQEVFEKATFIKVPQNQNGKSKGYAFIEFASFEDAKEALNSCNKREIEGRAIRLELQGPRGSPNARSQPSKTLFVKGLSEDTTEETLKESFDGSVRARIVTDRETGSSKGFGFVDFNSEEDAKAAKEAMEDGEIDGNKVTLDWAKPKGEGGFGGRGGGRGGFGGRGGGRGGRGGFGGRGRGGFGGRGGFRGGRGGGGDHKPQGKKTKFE
Sequence of MDM2 (Q00987 whole entry): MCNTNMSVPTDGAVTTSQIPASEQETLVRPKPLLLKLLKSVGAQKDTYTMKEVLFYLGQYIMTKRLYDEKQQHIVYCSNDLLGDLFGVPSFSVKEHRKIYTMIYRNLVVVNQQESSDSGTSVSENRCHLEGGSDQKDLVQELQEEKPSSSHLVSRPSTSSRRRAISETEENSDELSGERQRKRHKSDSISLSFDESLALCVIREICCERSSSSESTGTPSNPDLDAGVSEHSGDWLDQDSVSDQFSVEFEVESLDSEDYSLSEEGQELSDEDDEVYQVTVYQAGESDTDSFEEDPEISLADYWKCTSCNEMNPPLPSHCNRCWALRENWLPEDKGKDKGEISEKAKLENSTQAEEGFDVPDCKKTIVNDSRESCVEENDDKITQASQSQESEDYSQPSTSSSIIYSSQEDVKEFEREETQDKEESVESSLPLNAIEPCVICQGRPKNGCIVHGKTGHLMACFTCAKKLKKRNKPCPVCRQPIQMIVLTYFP
Description: 6 μg/mL recombinant human NCL and 6 μg/mL recombinant human MDM2 were mixed well and incubated at 4° C. for 7 h. Subsequently, 400 nM CRO, AS1411, or iSN04 labeled by biotin at the 5′ end was added, and the mixture was incubated at 4° C. for 6 h. Streptavidin agarose gel beads (purchased from cytiva, Cat. No.: 17511301) were added, and the mixture was further incubated at 4° C. overnight. The gel beads were washed 4 times with a TBST buffer, and an SDS-PAGE protein loading buffer (purchased from Beyotime, Cat. No.: P0015) was added. The mixture was heated to 100° C. and held for 10 min. After centrifugation, the supernatant was collected. The pull-down product was then detected by western blot assay.

[4] = system: HeLa cells; assay: Cell penetration and intracellular colocalization, confocal laser microscope; format: cell-based; conditions: 500 nM Cy5-labeled, 6 h
Description: HeLa cells were incubated with 500 nM Cy5-labeled CRO or AS1411 for 6 h. After the incubation was completed, immunofluorescence staining was performed on NCL and MDM2, and 4′,6-diamidino-2-phenylindole (DAPI) was used to stain nuclei. The cell penetration of the CRO or AS1411 and the intracellular colocalization of the CRO or AS1411 with NCL and MDM2 were observed under a confocal laser microscope.
HeLa cells were transfected with si-NC or si-NCL and subsequently incubated with 500 nM Cy5-labeled AS1411 for 6 h. After the incubation was completed, immunofluorescence staining was performed on MDM2, and DAPI was used to stain nuclei. The intracellular colocalization of AS1411 with MDM2 was observed by a confocal laser microscope.

T1 sequence (P40763 whole entry): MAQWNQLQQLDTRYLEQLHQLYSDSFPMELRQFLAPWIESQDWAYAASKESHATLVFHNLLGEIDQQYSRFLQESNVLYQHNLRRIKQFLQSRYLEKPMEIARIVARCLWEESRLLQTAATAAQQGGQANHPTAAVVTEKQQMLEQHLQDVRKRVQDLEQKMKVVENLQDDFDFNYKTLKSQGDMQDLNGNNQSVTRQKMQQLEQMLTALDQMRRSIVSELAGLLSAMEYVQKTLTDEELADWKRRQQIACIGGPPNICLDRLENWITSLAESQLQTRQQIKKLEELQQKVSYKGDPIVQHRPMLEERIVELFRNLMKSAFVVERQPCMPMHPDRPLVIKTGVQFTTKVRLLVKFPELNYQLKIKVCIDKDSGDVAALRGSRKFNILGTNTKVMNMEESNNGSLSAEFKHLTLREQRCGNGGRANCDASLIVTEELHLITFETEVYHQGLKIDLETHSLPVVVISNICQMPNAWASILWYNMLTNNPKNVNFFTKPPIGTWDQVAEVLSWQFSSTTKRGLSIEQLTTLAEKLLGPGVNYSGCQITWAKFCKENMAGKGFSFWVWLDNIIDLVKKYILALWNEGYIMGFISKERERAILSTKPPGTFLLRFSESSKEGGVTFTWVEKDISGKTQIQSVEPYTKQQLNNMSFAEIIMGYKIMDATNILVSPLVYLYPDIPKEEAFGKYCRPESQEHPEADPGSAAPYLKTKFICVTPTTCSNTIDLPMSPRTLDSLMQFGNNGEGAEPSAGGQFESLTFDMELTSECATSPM

For “AS1411: DNA aptamer, GRO binding NCL, SEQ ID NO: 1: 5′-GGTGGTGGTGGTTGTGGTGGTGGTGG-3′”, the “protein level of STAT3” value [1] was “only the first PROTAC product 1411-S3-1 and the second PROTAC product 1411-S3-2 can reduce the protein level of transcription factor STAT3”, the “protein level of STAT3” value [2] was “only the first PROTAC product 1411-S3-1 and the second PROTAC product 1411-S3-2 can reduce the protein level of transcription factor STAT3” and the “binding / recruitment of MDM2” value [3] was “recruits MDM2 in large amounts depending on its interaction with NCL”. For the same substance, the cell penetration [4] was “can penetrate HeLa cells”, the “intracellular colocalization with NCL and MDM2” value [4] was “exhibits significant colocalization with both NCL and MDM2” and the “cell penetration when NCL is silenced” value ([4]; si-NCL) was “silencing NCL can block AS1411 from penetrating cells”. For the same substance, the “intracellular colocalization with MDM2 when NCL is silenced” value ([4]; si-NCL) was “no observed colocalization between AS1411 and MDM2”.
